Drawing on ChEMBL document CHEMBL3399979, “Discovery of novel Bruton's tyrosine kinase (BTK) inhibitors bearing a pyrrolo[2,3-d]pyrimidine scaffold” (Bioorg Med Chem, 2015), this text covers IC50 for 31 compounds.

The structures appear in SMILES notation.

The target in assay [1] is T1, Tyrosine-protein kinase BTK (Homo sapiens, UniProt Q06187). Description: Inhibition of BTK (unknown origin) after 1 hr by TR-FRET analysis. In general terms: In TR-FRET formats the signal depends on donor and acceptor labels being close together.
In assay [2] the target is T1, Tyrosine-protein kinase BTK. As to the kind of experiment: Inhibition of BTK in human Ramos cells after 20 mins by fluorescence assay. The class given is cell-based.

T1 sequence (Q06187 whole entry): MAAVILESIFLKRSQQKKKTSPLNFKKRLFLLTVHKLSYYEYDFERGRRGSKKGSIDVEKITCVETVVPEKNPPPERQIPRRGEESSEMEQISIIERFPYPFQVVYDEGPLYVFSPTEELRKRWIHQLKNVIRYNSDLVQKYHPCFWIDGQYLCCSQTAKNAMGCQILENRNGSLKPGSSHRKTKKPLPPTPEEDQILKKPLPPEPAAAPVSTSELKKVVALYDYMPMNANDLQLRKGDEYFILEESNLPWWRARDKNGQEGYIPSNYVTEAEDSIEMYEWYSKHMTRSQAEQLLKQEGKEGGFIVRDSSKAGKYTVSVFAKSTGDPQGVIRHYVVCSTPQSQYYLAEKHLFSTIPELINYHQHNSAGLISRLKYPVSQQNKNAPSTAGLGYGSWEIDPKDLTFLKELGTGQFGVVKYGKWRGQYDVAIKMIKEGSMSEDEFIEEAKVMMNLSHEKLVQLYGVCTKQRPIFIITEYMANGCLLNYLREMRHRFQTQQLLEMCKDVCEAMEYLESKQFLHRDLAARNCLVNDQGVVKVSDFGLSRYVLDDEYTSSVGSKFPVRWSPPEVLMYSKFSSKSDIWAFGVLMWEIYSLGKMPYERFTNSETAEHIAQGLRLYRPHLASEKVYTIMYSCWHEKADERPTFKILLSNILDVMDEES

As a reminder, the IC50 is the concentration at which inhibition is half-maximal. For `CS(=O)(=O)N1CC=C(c2cc3c(-c4cccc(-n5ccc6cc(C7CC7)cc(F)c6c5=O)c4CO)ncnc3[nH]2)CC1`, the values for the IC50 in assay [1] and in assay [2] were 15.8 nM and 7.9 nM, respectively.

`O=c1c2c(F)cc(C3CC3)cc2ccn1-c1cccc(-c2ncnc3[nH]ccc23)c1CO`: the IC50 in assay [1] is 1570 nM; in assay [2] it was above 5000 nM.

Turning to `O=c1c2c(F)cc(C3CC3)cc2ccn1-c1cccc(-c2ncnc3[nH]c(-c4ccccc4)cc23)c1CO`, the IC50 in assay [1] was found to be 90.3 nM; in assay [2], 79 nM.

Regarding `O=c1c2c(F)cc(C3CC3)cc2ccn1-c1cccc(-c2ncnc3[nH]c(-c4ccc(O)cc4)cc23)c1CO`, the IC50 in assay [1] came out at 73.9 nM; in assay [2], 211 nM.

Consider `COc1ccc(-c2cc3c(-c4cccc(-n5ccc6cc(C7CC7)cc(F)c6c5=O)c4CO)ncnc3[nH]2)cc1`, for which the values for the IC50 in assay [1] and in assay [2] were 58.3 nM and 38.8 nM, respectively.

On to `Nc1cccc(-c2cc3c(-c4cccc(-n5ccc6cc(C7CC7)cc(F)c6c5=O)c4CO)ncnc3[nH]2)c1`, for which the IC50 in assay [1] was found to be 136 nM; in assay [2], 65 nM.

Take `CC(=O)c1ccc(-c2cc3c(-c4cccc(-n5ccc6cc(C7CC7)cc(F)c6c5=O)c4CO)ncnc3[nH]2)cc1`: the IC50 in assay [1] came out at 41.7 nM; in assay [2], 49 nM.

Consider `CN(C)C(=O)c1ccc(-c2cc3c(-c4cccc(-n5ccc6cc(C7CC7)cc(F)c6c5=O)c4CO)ncnc3[nH]2)cc1`, for which the IC50 in assay [1] amounted to 17.8 nM; in assay [2], 15 nM.

In the case of `O=C(c1ccc(-c2cc3c(-c4cccc(-n5ccc6cc(C7CC7)cc(F)c6c5=O)c4CO)ncnc3[nH]2)cc1)N1CCOCC1`, the IC50 worked out at 18.2 nM in assay [1] and 10 nM in assay [2].

In the case of `O=C(c1ccc(-c2cc3c(-c4cccc(-n5ccc6cc(C7CC7)cc(F)c6c5=O)c4CO)ncnc3[nH]2)cc1)N1CCCCC1`, the IC50 was 50.8 nM in assay [1] and 65 nM in assay [2].

Consider `CN(C)Cc1ccc(-c2cc3c(-c4cccc(-n5ccc6cc(C7CC7)cc(F)c6c5=O)c4CO)ncnc3[nH]2)cc1`, for which the values for the IC50 in assay [1] and in assay [2] were 31.6 nM and 33 nM, respectively.

For the compound `O=c1c2c(F)cc(C3CC3)cc2ccn1-c1cccc(-c2ncnc3[nH]c(-c4ccc(CN5CCOCC5)cc4)cc23)c1CO`, the IC50 in assay [1] is 63.6 nM; in assay [2], 12 nM.

Consider `CN(C)C(=O)c1cccc(-c2cc3c(-c4cccc(-n5ccc6cc(C7CC7)cc(F)c6c5=O)c4CO)ncnc3[nH]2)c1`, for which the half-maximal inhibitory concentration (IC50) in assay [1] was 69 nM; in assay [2], 87.3 nM.

On to `CC(=O)c1cc(-c2cc3c(-c4cccc(-n5ccc6cc(C7CC7)cc(F)c6c5=O)c4CO)ncnc3[nH]2)cs1`, for which the IC50 in assay [1] is 119 nM; in assay [2], 58 nM.

In the case of `O=c1c2c(F)cc(C3CC3)cc2ccn1-c1cccc(-c2ncnc3[nH]c(-c4cc[nH]n4)cc23)c1CO`, the values for the IC50 in assay [1] and in assay [2] were 38.8 nM and 47 nM, respectively.

As to `Cn1ccc(-c2cc3c(-c4cccc(-n5ccc6cc(C7CC7)cc(F)c6c5=O)c4CO)ncnc3[nH]2)n1`, the IC50 was 21.3 nM in assay [1] and 38 nM in assay [2].

`COc1ccc(-c2cc3c(-c4cccc(-n5ccc6cc(C7CC7)cc(F)c6c5=O)c4CO)ncnc3[nH]2)cn1`: the results for the 50% inhibitory concentration (IC50) in assay [1] and in assay [2] were 197 nM and 74 nM, respectively.

Regarding `CN(C)C(=O)c1cc2c(-c3cccc(-n4ccc5cc(C6CC6)cc(F)c5c4=O)c3CO)ncnc2[nH]1`, the IC50 came out at 1360 nM in assay [1] and 1560 nM in assay [2].

Regarding `O=c1c2c(F)cc(C3CC3)cc2ccn1-c1cccc(-c2ncnc3[nH]c(C4=CCCCC4)cc23)c1CO`, the values for the IC50 in assay [1] and in assay [2] were 77.8 nM and 350 nM, respectively.

Regarding `O=c1c2c(F)cc(C3CC3)cc2ccn1-c1cccc(-c2ncnc3[nH]c(C4=CCSCC4)cc23)c1CO`, the half-inhibitory concentration (IC50) worked out at 67.1 nM in assay [1] and 46 nM in assay [2].

Turning to `O=c1c2c(F)cc(C3CC3)cc2ccn1-c1cccc(-c2ncnc3[nH]c(C4=CCNCC4)cc23)c1CO`, the IC50 in assay [1] was found to be 32.5 nM; in assay [2] it was 96.5 nM.

Take `CN1CC=C(c2cc3c(-c4cccc(-n5ccc6cc(C7CC7)cc(F)c6c5=O)c4CO)ncnc3[nH]2)CC1`: the IC50 stood at 57.1 nM in assay [1] and 125 nM in assay [2].

For the compound `CC(=O)N1CC=C(c2cc3c(-c4cccc(-n5ccc6cc(C7CC7)cc(F)c6c5=O)c4CO)ncnc3[nH]2)CC1`, the IC50 amounted to 15.3 nM in assay [1] and 21.4 nM in assay [2].

As for `CN(C)C(=O)N1CC=C(c2cc3c(-c4cccc(-n5ccc6cc(C7CC7)cc(F)c6c5=O)c4CO)ncnc3[nH]2)CC1`, the 50% inhibitory concentration (IC50) in assay [1] is 7 nM; in assay [2], 21.6 nM.

With `O=C(N1CC=C(c2cc3c(-c4cccc(-n5ccc6cc(C7CC7)cc(F)c6c5=O)c4CO)ncnc3[nH]2)CC1)N1CCOCC1`, the IC50 turned out to be 4.8 nM in assay [1] and 17 nM in assay [2].

For `CNC(=O)N1CC=C(c2cc3c(-c4cccc(-n5ccc6cc(C7CC7)cc(F)c6c5=O)c4CO)ncnc3[nH]2)CC1`, the IC50 is 25.2 nM in assay [1] and 51.3 nM in assay [2].

For the compound `CN(C)S(=O)(=O)N1CC=C(c2cc3c(-c4cccc(-n5ccc6cc(C7CC7)cc(F)c6c5=O)c4CO)ncnc3[nH]2)CC1`, the IC50 turned out to be 16.5 nM in assay [1] and 26 nM in assay [2].

As to `O=c1c2c(F)cc(C3CC3)cc2ccn1-c1cccc(-c2ncnc3[nH]c(C4=CCN(C5COC5)CC4)cc23)c1CO`, the IC50 in assay [1] worked out at 24.8 nM; in assay [2], 11 nM.

On to `O=c1c2c(F)cc(C3CC3)cc2ccn1-c1cccc(-c2ncnc3[nH]c(C4=CCN(c5ncccn5)CC4)cc23)c1CO`, for which the IC50 in assay [1] worked out at 45.3 nM; in assay [2], 69.7 nM.

With `CN(C)C(=O)N1CCC(c2cc3c(-c4cccc(-n5ccc6cc(C7CC7)cc(F)c6c5=O)c4CO)ncnc3[nH]2)CC1`, the IC50 in assay [1] came to 574 nM; in assay [2], 1650 nM.

Turning to `CN(C)C(=O)N1CC=C(c2cc3c(-c4cccc(-n5ccc6cc(C7CC7)cc(F)c6c5=O)c4CO)ncnc3n2C)CC1`, the IC50 in assay [1] and in assay [2] was above 5000 nM in each case.
